From patent publication US20230382925A1, “MODULATORS OF CYSTIC FIBROSIS TRANSMEMBRANE CONDUCTANCE REGULATOR” (VERTEX PHARMACEUTICALS INCORPORATED, priority 2020, published 2023) come the findings set out here.

pEC50: −log10 of the molar value.

Assay [1] addresses T1, CFTR (Homo sapiens, UniProt P13569). The experiment in a line: Membrane Potential Dye, Enteroid Assay A. It counts as cell-based. The conditions noted are these: for pEC50: read-out: Ent. A EC50. In short, it runs like this: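 Primary human intestinal enteroid cells exposed to compound for 18–24 hours at 37 °C, then loaded 25 min with methyl oxonol membrane potential dye plus CaCC inhibitors. Chloride transport triggered in chloride-free buffer with 10 μM forskolin, 100 μM IBMX and 300 nM Compound III, fluorescence read 15 min; % Activity relative to a triple-combination corrector/potentiator control.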

The target in assay [2] is T1, CFTR. The assay is described as follows: Membrane Potential Dye, Enteroid Assay B. It is filed as cell-based. The conditions noted are these: for pEC50: read-out: Ent. B EC50. In outline:
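Activity given as % of a triple-combination reference (1 μM and 3 μM correctors, 300 nM acute potentiator). Enteroids were preincubated 18-24 h with compound; chloride efflux then measured 15 min by methyl oxonol fluorescence after forskolin/IBMX/Compound III stimulation in chloride-free buffer containing CaCCinh-A01 and Chicago Sky Blue.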

T1 sequence (P13569 with tags, fused parts or gaps DEL508-508): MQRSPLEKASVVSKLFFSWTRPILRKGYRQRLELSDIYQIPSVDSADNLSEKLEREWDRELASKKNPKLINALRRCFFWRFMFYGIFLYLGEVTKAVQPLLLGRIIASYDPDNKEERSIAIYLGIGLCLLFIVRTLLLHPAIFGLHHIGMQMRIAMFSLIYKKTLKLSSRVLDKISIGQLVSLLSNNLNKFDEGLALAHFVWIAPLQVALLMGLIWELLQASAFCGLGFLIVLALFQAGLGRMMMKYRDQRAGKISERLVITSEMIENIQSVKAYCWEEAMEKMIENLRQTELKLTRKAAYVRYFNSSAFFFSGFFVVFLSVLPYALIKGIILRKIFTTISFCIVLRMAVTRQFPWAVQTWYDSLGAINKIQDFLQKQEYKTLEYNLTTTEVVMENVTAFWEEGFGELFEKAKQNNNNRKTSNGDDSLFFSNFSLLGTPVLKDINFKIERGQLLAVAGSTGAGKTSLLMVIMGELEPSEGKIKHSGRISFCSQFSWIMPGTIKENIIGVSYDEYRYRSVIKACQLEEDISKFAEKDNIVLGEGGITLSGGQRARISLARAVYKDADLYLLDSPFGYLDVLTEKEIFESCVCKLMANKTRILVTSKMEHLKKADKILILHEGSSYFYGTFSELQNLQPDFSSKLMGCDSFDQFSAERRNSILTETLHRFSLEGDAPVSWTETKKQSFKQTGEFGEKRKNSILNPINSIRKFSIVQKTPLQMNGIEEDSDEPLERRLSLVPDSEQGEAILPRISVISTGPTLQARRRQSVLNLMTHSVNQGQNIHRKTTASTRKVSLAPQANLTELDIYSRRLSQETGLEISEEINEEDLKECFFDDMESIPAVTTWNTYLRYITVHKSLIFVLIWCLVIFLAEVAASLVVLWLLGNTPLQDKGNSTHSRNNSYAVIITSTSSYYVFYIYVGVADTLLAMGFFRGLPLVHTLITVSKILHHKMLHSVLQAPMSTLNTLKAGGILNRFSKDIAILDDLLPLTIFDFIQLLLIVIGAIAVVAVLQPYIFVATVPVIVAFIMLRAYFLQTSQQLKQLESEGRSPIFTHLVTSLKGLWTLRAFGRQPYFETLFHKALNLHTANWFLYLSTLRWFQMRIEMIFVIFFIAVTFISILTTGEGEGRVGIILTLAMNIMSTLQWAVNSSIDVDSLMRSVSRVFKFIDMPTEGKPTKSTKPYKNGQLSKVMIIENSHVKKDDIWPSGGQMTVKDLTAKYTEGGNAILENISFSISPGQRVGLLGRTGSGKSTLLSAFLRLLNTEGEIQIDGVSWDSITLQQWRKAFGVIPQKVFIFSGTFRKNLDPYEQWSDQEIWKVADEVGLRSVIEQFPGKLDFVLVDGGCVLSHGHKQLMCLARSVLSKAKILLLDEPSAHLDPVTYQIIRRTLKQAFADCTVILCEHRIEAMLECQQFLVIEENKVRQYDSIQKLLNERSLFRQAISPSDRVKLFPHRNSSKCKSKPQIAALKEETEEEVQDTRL

Regarding `COC(=O)N1CCCCC12CC(N1C(=O)c3cccc(c3)S(=O)(=O)Nc3nc(cc(-c4c(C)cccc4C)n3)OC[C@H]1CC(C)C)C2` (some centres unmarked) [Compound 323], at CFTR [1], the “Ent. A Max Activity (%)” value is reported as “+++ (+++ is >60%)” and the pEC50 is above 6.00. In addition, at CFTR [2], the “Ent. B Max Activity (%)” value was “+++ (+++ is >60%)” and the pEC50 is above 6.00.

With `Cc1cccc(C)c1-c1cc2nc(n1)NS(=O)(=O)c1cccc(c1)C(=O)N(C1CC3(CC3)C1)[C@@H](CC(C)C)CO2` [Compound 474, (11S)-6-(2,6-Dimethylphenyl)-11-isobutyl-2,2-dioxo-12-spiro[2.3]hexan-5-yl-9-oxa-2λ^6-thia-3,5,12,19-tetrazatricyclo[12.3.1.14,8]nonadeca-1(18),4(19),5,7,14,16-hexaen-13-one], at CFTR [1], the “Ent. A Max Activity (%)” value is reported as “++ (++ is 30-60%)” and the pEC50 is above 6.00. Besides, at CFTR [2], the “Ent. B Max Activity (%)” value is “+ (+ is <300%)” and the pEC50 is above 6.00.

Turning to `Cc1cccc(C)c1-c1cc2nc(n1)NS(=O)(=O)c1cccc(c1)C(=O)N([C@H]1CC3(C[C@H](N(C)C)C3)C1)[C@H](CC(C)C)CO2` (some centres unmarked) [Compound 313], at CFTR [1], the “Ent. A Max Activity (%)” value is recorded as “+++ (+++ is >60%)” and the pEC50 is above 6.00. At CFTR [2], the “Ent. B Max Activity (%)” value is recorded as “+++ (+++ is >60%)” and the pEC50 was above 6.00.

In the case of `Cc1cccc(C)c1-c1cc2nc(n1)NS(=O)(=O)c1cccc(c1)C(=O)N(C1CC3(CCN(C)CC3)C1)[C@H](CC(C)C)CO2` [Compound 15, (11R)-6-(2,6-Dimethylphenyl)-11-isobutyl-12-(7-methyl-7-azaspiro[3.5]nonan-2-yl)-2,2-dioxo-9-oxa-2λ^6-thia-3,5,12,19-tetrazatricyclo[12.3.1.14,8]nonadeca-1(18),4(19),5,7,14,16-hexaen-13-one], at CFTR [1], the “Ent. A Max Activity (%)” value is listed as “+++ (+++ is >60%)” and the pEC50 was above 6.00. At CFTR [2], the “Ent. B Max Activity (%)” value is given as “+++ (+++ is >60%)” and the pEC50 was above 6.00.

Consider `Cc1cccc(C)c1-c1cc2nc(n1)NS(=O)(=O)c1cccc(c1)C(=O)N(C1CC3(CCNCC3)C1)[C@H](CC(C)C)CO2` [Compound 14, (11R)-12-(7-Azaspiro[3.5]nonan-2-yl)-6-(2,6-dimethylphenyl)-11-isobutyl-2,2-dioxo-9-oxa-2λ^6-thia-3,5,12,19-tetrazatricyclo[12.3.1.14,8]nonadeca-1(18),4(19),5,7,14,16-hexaen-13-one], for which, on CFTR [1], the “Ent. A Max Activity (%)” value is “+++ (+++ is >60%)” and the pEC50 was 4.52 to 5.52. For the same molecule, at CFTR [2], the “Ent. B Max Activity (%)” value is “+++ (+++ is >60%)” and the pEC50 was above 6.00.

For `Cc1cccc(C)c1-c1cc2nc(n1)NS(=O)(=O)c1cccc(c1)C(=O)N([C@H]1CC3(C[C@@H](CO)C3)C1)[C@H](CC(C)C)CO2` (some centres unmarked) [Compound 337], at CFTR [1], the “Ent. A Max Activity (%)” value is “+++ (+++ is >60%)” and the pEC50 was above 6.00. In addition, at CFTR [2], the “Ent. B Max Activity (%)” value is on record as “+++ (+++ is >60%)” and the pEC50 is above 6.00.

As for `COC(=O)N1CCC2(CC1)CC(N1C(=O)c3cccc(c3)S(=O)(=O)Nc3nc(cc(-c4c(C)cccc4C)n3)OC[C@H]1CC(C)C)C2` [Compound 19, methyl 2-[(11R)-6-(2,6-dimethylphenyl)-11-isobutyl-2,2,13-trioxo-9-oxa-2λ^6-thia-3,5,12,19-tetrazatricyclo[12.3.1.14,8]nonadeca-1(18),4(19),5,7,14,16-hexaen-12-yl]-7-azaspiro[3.5]nonane-7-carboxylate], at CFTR [1], the “Ent. A Max Activity (%)” value was “+++ (+++ is >60%)” and the pEC50 is above 6.00. For the same molecule, on CFTR [2], the “Ent. B Max Activity (%)” value is listed as “+++ (+++ is >60%)” and the negative-log EC50 (pEC50) is above 6.00.

For the molecule `Cc1cccc(C)c1-c1cc2nc(n1)NS(=O)(=O)c1cccc(c1)C(=O)N(C1CN(C(=O)OC(C)(C)C)C1)[C@H](CC(C)C)CO2` [Compound 334], at CFTR [1], the “Ent. A Max Activity (%)” value is “+++ (+++ is >60%)” and the pEC50 is above 6.00. In addition, at CFTR [2], the “Ent. B Max Activity (%)” value is “++ (++ is 30-60%)” and the pEC50 was above 6.00.

Consider `Cc1cccc(C)c1-c1cc2nc(n1)NS(=O)(=O)c1cccc(c1)C(=O)N(C1CC3(CCN(CCC(F)(F)F)CC3)C1)[C@H](CC(C)C)CO2` [Compound 20, (11R)-6-(2,6-Dimethylphenyl)-11-isobutyl-2,2-dioxo-12-[7-(3,3,3-trifluoropropyl)-7-azaspiro[3.5]nonan-2-yl]-9-oxa-2λ^6-thia-3,5,12,19-tetrazatricyclo[12.3.1.14,8]nonadeca-1(18),4(19),5,7,14,16-hexaen-13-one], for which, at CFTR [1], the “Ent. A Max Activity (%)” value is “+++ (+++ is >60%)” and the pEC50 was above 6.00. At CFTR [2], the “Ent. B Max Activity (%)” value is on record as “+++ (+++ is >60%)” and the pEC50 was above 6.00.

For `Cc1cccc(C)c1-c1cc2nc(n1)NS(=O)(=O)c1cccc(c1)C(=O)N([C@H]1C[C@@H](NC(=O)OC(C)(C)C)C1)[C@H](CC(C)C)CO2` [Compound 349], at CFTR [1], the “Ent. A Max Activity (%)” value is listed as “+++ (+++ is >60%)” and the pEC50 is above 6.00. On CFTR [2], the “Ent. B Max Activity (%)” value was “++ (++ is 30-60%)” and the pEC50 was above 6.00.

Turning to `COCCN1CCC2(CC1)CC(N1C(=O)c3cccc(c3)S(=O)(=O)Nc3nc(cc(-c4c(C)cccc4C)n3)OC[C@H]1CC(C)C)C2` [Compound 22, (11R)-6-(2,6-dimethylphenyl)-11-isobutyl-12-[7-(2-methoxyethyl)-7-azaspiro[3.5]nonan-2-yl]-2,2-dioxo-9-oxa-2λ^6-thia-3,5,12,19-tetrazatricyclo[12.3.1.14,8]nonadeca-1(18),4(19),5,7,14,16-hexaen-13-one], at CFTR [1], the “Ent. A Max Activity (%)” value is listed as “+++ (+++ is >60%)” and the negative-log EC50 (pEC50) is above 6.00. At CFTR [2], the “Ent. B Max Activity (%)” value is “+++ (+++ is >60%)” and the pEC50 is above 6.00.

With `Cc1cccc(C)c1-c1cc2nc(n1)NS(=O)(=O)c1cccc(c1)C(=O)N([C@H]1CC3(C[C@H](C(=O)N(C)C)C3)C1)[C@H](CC(C)C)CO2` (some centres unmarked) [Compound 343], on CFTR [1], the “Ent. A Max Activity (%)” value is “+++ (+++ is >60%)” and the pEC50 is above 6.00. Further, at CFTR [2], the “Ent. B Max Activity (%)” value is listed as “+++ (+++ is >60%)” and the pEC50 is above 6.00.

Consider `Cc1cccc(C)c1-c1cc2nc(n1)NS(=O)(=O)c1cccc(c1)C(=O)N(C1CN(C(C)C)C1)[C@H](CC(C)C)CO2` [Compound 319], for which, on CFTR [1], the “Ent. A Max Activity (%)” value is “+++ (+++ is >60%)” and the negative-log EC50 (pEC50) was above 6.00. Further, at CFTR [2], the “Ent. B Max Activity (%)” value is “+++ (+++ is >60%)” and the pEC50 was above 6.00.

In the case of `Cc1cccc(C)c1-c1cc2nc(n1)NS(=O)(=O)c1cccc(c1)C(=O)N(C1CC3(CCN(C)CC3)C1)CC(CC(C)C)(CC(C)C)CO2` (centres unmarked) [Compound 311], on CFTR [1], the “Ent. A Max Activity (%)” value is recorded as “+++ (+++ is >60%)” and the negative-log EC50 (pEC50) is above 6.00. Further, on CFTR [2], the “Ent. B Max Activity (%)” value is reported as “+++ (+++ is >60%)” and the pEC50 was above 6.00.

For `Cc1cccc(C)c1-c1cc2nc(n1)NS(=O)(=O)c1cccc(c1)C(=O)N(C1CN(C3CC4(CC4)C3)C1)[C@H](CC(C)C)CO2` [Compound 101, (11R)-6-(2,6-Dimethylphenyl)-11-isobutyl-2,2-dioxo-12-(1-spiro[2.3]hexan-5-ylazetidin-3-yl)-9-oxa-2λ^6-thia-3,5,12,19-tetrazatricyclo[12.3.1.14,8]nonadeca-1(18),4(19),5,7,14,16-hexaen-13-one], on CFTR [1], the “Ent. A Max Activity (%)” value was “+++ (+++ is >60%)” and the pEC50 is above 6.00. In addition, on CFTR [2], the “Ent. B Max Activity (%)” value was “+++ (+++ is >60%)” and the pEC50 was above 6.00.

As to `CNC(=O)[C@H]1CC2(C1)C[C@H](N1C(=O)c3cccc(c3)S(=O)(=O)Nc3nc(cc(-c4c(C)cccc4C)n3)OC[C@H]1CC(C)C)C2` (stereo in doubt) [Compound 346], on CFTR [1], the “Ent. A Max Activity (%)” value was “+++ (+++ is >60%)” and the pEC50 is above 6.00. Further, on CFTR [2], the “Ent. B Max Activity (%)” value was “+++ (+++ is >60%)” and the negative logarithm of the EC50 (pEC50) was above 6.00.

`COC(=O)NC1CC2(C1)CC(N1C(=O)c3cccc(c3)S(=O)(=O)Nc3nc(cc(-c4c(C)cccc4C)n3)OC[C@H]1CC(C)C)C2` (some centres unmarked) [Compound 326]: on CFTR [1], the “Ent. A Max Activity (%)” value was “+++ (+++ is >60%)” and the pEC50 was above 6.00. Moreover, on CFTR [2], the “Ent. B Max Activity (%)” value is on record as “+++ (+++ is >60%)” and the pEC50 was above 6.00.

As to `CC(=O)N1CCC2(CC1)CC(N1C(=O)c3cccc(c3)S(=O)(=O)Nc3nc(cc(-c4c(C)cccc4C)n3)OC[C@H]1CC(C)C)C2` [Compound 16, (11R)-12-(7-Acetyl-7-azaspiro[3.5]nonan-2-yl)-6-(2,6-dimethylphenyl)-11-isobutyl-2,2-dioxo-9-oxa-2λ^6-thia-3,5,12,19-tetrazatricyclo[12.3.1.14,8]nonadeca-1(18),4(19),5,7,14,16-hexaen-13-one], on CFTR [1], the “Ent. A Max Activity (%)” value is recorded as “+++ (+++ is >60%)” and the pEC50 is above 6.00. In addition, at CFTR [2], the “Ent. B Max Activity (%)” value was “+++ (+++ is >60%)” and the pEC50 is above 6.00.

Turning to `CCOC(=O)N1CCC2(CC1)CC(N1C(=O)c3cccc(c3)S(=O)(=O)Nc3nc(cc(-c4c(C)cccc4C)n3)OC[C@H]1CC(C)C)C2` [Compound 315], on CFTR [1], the “Ent. A Max Activity (%)” value is listed as “+++ (+++ is >60%)” and the pEC50 is above 6.00. Further, on CFTR [2], the “Ent. B Max Activity (%)” value is recorded as “+++ (+++ is >60%)” and the negative logarithm of the EC50 (pEC50) was above 6.00.

In the case of `Cc1cccc(C)c1-c1cc2nc(n1)NS(=O)(=O)c1cccc(c1)C(=O)N(C1CC3(CCN(CCF)CC3)C1)[C@H](CC(C)C)CO2` [Compound 321], at CFTR [1], the “Ent. A Max Activity (%)” value is “+++ (+++ is >60%)” and the pEC50 is above 6.00. Further, at CFTR [2], the “Ent. B Max Activity (%)” value is “+++ (+++ is >60%)” and the pEC50 was above 6.00.
